Reference: publication PMC3589414, “Regulation of ASPP2 Interaction with p53 Core Domain by an Intramolecular Autoinhibitory Mechanism” (PLoS ONE, 2013)
“And” between values parts separate entries of the source, which are not always exact repeats. Equal entries are not always repeated. “Also recorded” adds a separate entry of the source. Where a SMILES comes first, the peptide text is derived from it. Where no end group is shown, it is not given here. The star is where a group is joined. 5FAM = O=C1OC2(c3ccc(O)cc3Oc3cc(O)ccc32)c2ccc(C(=O)*)cc21

How the values were obtained:
[1] = molecular target: T1, complex between ASPP2 Ank-SH3 and Fl-ASPP2 722–737 (Homo sapiens, UniProt Q13625); details: previously shown; cited from earlier work
T1 construct: pRSET HLT ASPP2 893–1128 vector; HLT (vector-encoded tag); made in house
T1 sequence (Q13625 893-1128): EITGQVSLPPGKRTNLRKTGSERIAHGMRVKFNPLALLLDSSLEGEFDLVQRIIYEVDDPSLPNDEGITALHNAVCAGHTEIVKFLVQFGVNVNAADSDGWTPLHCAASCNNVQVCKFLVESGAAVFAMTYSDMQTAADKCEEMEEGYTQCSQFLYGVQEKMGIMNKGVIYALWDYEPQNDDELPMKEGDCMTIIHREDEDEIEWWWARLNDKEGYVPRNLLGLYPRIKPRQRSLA
Description: Fl-NFκB 303–332 was previously shown to bind ASPP2 Ank-SH3 and compete with the Pro peptide ASPP2 722–737 [13]. We thus assumed that NFκB 303–332 also binds the SH3 domain of ASPP2, similar to p53CD and the ASPP2 Pro peptide. […] The Bcl-2 BH4 peptide (residues 7–24) binds the RT loop of ASPP2 in different residues than the p53 loop3 [14], [22]. […] However, p53CD displaced Fl-NFκB 303–332 from its complex with ASPP2 Ank-SH3. ...

[2] = molecular target: Bcl-2 peptide 7-24 (Homo sapiens) (UniProt P10415); test: fluorescence anisotropy; details: cited from earlier work
[3] = molecular target: T2, ASPP2 n-src peptide (residues 1089–1097) (Homo sapiens, UniProt Q13625); test: Fluorescence anisotropy titration into Fl-ASPP2 n-src peptide; type: binding; details: 20 mM Hepes pH 7.0, IS 50 mM, 5 mM βME, data not shown
T2 construct: fluorescein-labeled (Fl) ASPP2 n-src peptide (residues 1089–1097); made in house; host or cells: chemical peptide synthesis

[4] = test system: complex between p53CD and Fl-ASPP2 1089–1097; test: Fluorescence anisotropy competition: competitor added to complex of Fl-ASPP2 1089–1097 and p53CD; type: binding; details: 200 µl of 130 µM competitor added to 87 nM Fl-ASPP2 1089–1097 and 6.5 µM p53CD, 50 mM Hepes pH 7.0, IS = 20 mM, 10 mM βME, 10°C
Protocol: (§1) In the competition experiments, the conditions were as follows: 100–200 µl of competitor peptide or protein were added to a 1200 µl mixture of 83 nM Fl-ASPP2 722–737 and 8.3 µM ASPP2 Ank-SH3 at 20 mM Hepes pH 7.0, IS = 50 mM, 5 mM βME; 200 µl of 130 µM of competitor peptide were added to a 1150-µl mixture of 87 nM Fl peptide ASPP2 1089–1097 and 6.5 µM p53CD at 50 mM Hepes pH 7.0, IS = 20 mM, 10 mM βME; 200 µl of 130 µM of Bcl-2 103–120 or Bcl-2 7–24 were added to a 1100 µl mixture of 87 nM Fl-NFκB 303–332 and 2.25 µM ASPP2 Ank-SH3 or to 1150 µl mixture of 87 nM Fl-ASPP2 722–737 and 4.5 µM ASPP2 Ank-SH3 at 20 mM Hepes pH 7.0, IS = 50 mM, 5 mM βME. The K d of the competitor was calculated as described.

HCT116 p53−/− cells = details: cited from earlier work
Description: (§2) It is possible that the peptide inhibits the intramolecular interaction in ASPP2 and thus activates the p53-ASPP2 interaction that ...

[5] = test system: colorectal carcinoma HCT116 cells; details: cited from earlier work
Description: as §2

[6] = test system: R175H and R273H mutant p53; details: cited from earlier work
Description: as §2

p53CD = details: 37°C, concentration-dependent; cited from earlier work
Description: (§3) The TP53 gene encoding p53 is frequently mutated in human cancers and most of these reported mutations are in the DNA-binding core domain of the protein (p53CD), [25]. Some of these mutations lower the thermodynamic stability of p53, resulting in its unfolding and inactivation.

p53 R249S mutant = details: back towards wild-type-like structure; cited from earlier work
Description: as §3

p53CD mutant I195T = details: to levels similar to wild-type; cited from earlier work
Description: as §3

[7] = molecular target: T3, complex between ASPP2 Ank-SH3 and Fl-NFκB 303–332 (Homo sapiens, UniProt Q13625); test: Fluorescence anisotropy competition: competitor added to complex of Fl-NFκB 303–332 and ASPP2 Ank-SH3; type: binding; details: Bcl-2 peptides: 200 µl of 130 µM added to 87 nM Fl-NFκB 303–332 and 2.25 µM ASPP2 Ank-SH3, 20 mM Hepes pH 7.0, IS = 50 mM; p53CD: IS = 150 mM; 10°C
T3 construct: pRSET HLT ASPP2 893–1128 vector; HLT (vector-encoded tag); made in house
T3 sequence (Q13625 893-1128): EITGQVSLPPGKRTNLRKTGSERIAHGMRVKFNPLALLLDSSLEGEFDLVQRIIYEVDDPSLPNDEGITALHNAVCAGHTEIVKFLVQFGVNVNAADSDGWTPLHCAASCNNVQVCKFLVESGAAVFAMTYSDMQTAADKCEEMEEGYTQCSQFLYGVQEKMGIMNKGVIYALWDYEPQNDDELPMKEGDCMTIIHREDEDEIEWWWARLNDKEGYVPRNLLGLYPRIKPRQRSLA
Protocol: as §1

[8] = molecular target: T1, complex between ASPP2 Ank-SH3 and Fl-ASPP2 722–737; test: Fluorescence anisotropy competition: competitor added to complex of Fl-ASPP2 722–737 and ASPP2 Ank-SH3; type: binding; details: 83–87 nM Fl-ASPP2 722–737, 8.3 µM (p53CD) or 4.5 µM (Bcl-2 peptides) ASPP2 Ank-SH3, 20 mM Hepes pH 7.0, IS = 50 mM, 5 mM βME, 10°C
Protocol: as §1

[9] = test system: complex between Fl-ASPP2 1089–1097 and ASPP2 722–737; test: Fluorescence anisotropy competition: p53CD added to complex of Fl-ASPP2 1089–1097 and ASPP2 722–737; type: binding; details: Figure 2A
Protocol: A major p53-interacting site in ASPP2 SH3 is situated in the n-src loop between residues 1089–1097 [14], [27] (Figure 1A, B). […] The ASPP2 Pro peptide (residues 722–737) was titrated into the fluorescein-labeled (Fl) ASPP2 n-src peptide (residues 1089–1097). […] In the opposite experiment p53CD was added to a pre-formed complex between the ASPP2 Pro peptide and the Fl-ASPP2 n-src peptide (Figure 2A).

[10] = molecular target: T4, ASPP2 Ank-SH3 (ASPP2 893–1128) (UniProt Q13625 893-1128); test: fluorescence polarisation; fluorescence anisotropy; ASPP2 Ank-SH3 titrated into 100 nM fluorescein-labelled peptide; 10°C; 20 mM Hepes pH 7.0, 5 mM βME; ionic strength 50 mM (told for the competitions done on these complexes); 1:1 binding model; details: both partners purified
T4 construct: ASPP2, four ankyrin repeats and SH3 domain, residues 893-1128
T4 sequence (looked up): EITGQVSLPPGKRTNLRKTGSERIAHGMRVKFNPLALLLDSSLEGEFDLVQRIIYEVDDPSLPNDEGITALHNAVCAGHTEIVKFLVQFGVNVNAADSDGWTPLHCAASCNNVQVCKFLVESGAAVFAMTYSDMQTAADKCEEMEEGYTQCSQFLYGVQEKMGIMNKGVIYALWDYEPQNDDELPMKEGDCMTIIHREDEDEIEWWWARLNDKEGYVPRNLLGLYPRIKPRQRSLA

[11] = molecular target: T5, Fl-ASPP2 1089–1097 (fluorescein-labelled ASPP2 n-src loop peptide); test: fluorescence polarisation; fluorescence anisotropy; p53CD or ASPP2 722–737 titrated into 100 nM Fl-ASPP2 1089–1097 in the cuvette; 10°C; 50 mM Hepes pH 7.0, 10 mM NaCl, 10 mM βME; 1:1 binding model; details: both partners purified
T5 construct: ASPP2 n-src loop of the SH3 domain, residues 1089-1097; also called Fl-ASPP2 n-src peptide; Fl-n-src peptide; source: synthetic peptide
T5 peptide: fluorescein-REDEDEIEW

[12] = molecular target: T4, ASPP2 Ank-SH3 (ASPP2 893–1128); test: fluorescence polarisation; fluorescence anisotropy; ASPP2 Ank-SH3 titrated into Fl-NFκB 303–332; 10°C; 20 mM Hepes pH 7.0, 5 mM βME; ionic strength 150 mM (told for the competition done on this complex); details: both partners purified

CC[C@H](C)[C@H](NC(=O)[C@H](CCCNC(=N)N)NC(=O)[C@H](CCCNC(=N)N)NC(=O)[C@@H]1CCCN1C(=O)[C@@H]1CCCN1C(=O)[C@@H]1CCCN1C(=O)[C@H](CCCNC(=N)N)NC(=O)[C@@H]1CCCN1C(=O)[C@H](CC(=O)O)NC(=O)[C@@H](NC(=O)[C@@H]1CCCN1C(=O)CNC(=O)[C@H](CO)NC(=O)[C@H](Cc1ccccc1)NC(=O)[C@@H]1CCCN1C(=O)[C@H](CO)NC(=O)[C@H](CCCCN)NC(=O)[C@H](CCCCN)NC(=O)[C@H](CCSC)NC(=O)[C@@H](NC(=O)[C@H](CO)NC(=O)[C@H](CCCCN)NC(=O)[C@H](Cc1ccccc1)NC(=O)[C@@H](NC(=O)[C@H](CCC(=O)O)NC(=O)[C@H](Cc1ccc(O)cc1)NC(=O)[C@@H](NC(=O)[C@H](CCCNC(=N)N)NC(=O)[C@H](CCCCN)NC(=O)c1ccc2c(c1)C(=O)OC21c2ccc(O)cc2Oc2cc(O)ccc21)[C@@H](C)O)[C@@H](C)O)[C@@H](C)CC)[C@@H](C)O)C(=O)N[C@@H](C)C(N)=O [Fl-NFκB 303–332] (5FAM-KRTYETFKSIMKKSPFSGPTDPRPPPRRIA-NH2)
Competition of NFκB 303–332 with Pro peptide ASPP2 722–737 for ASPP2 Ank-SH3 [1]: compete

ASPP2 Ank-SH3 Ank-SH3 (from UniProt Q13625)
Kd [2]: 4.7 µM

KRTYETFKSIMKKSPFSGPTDPRPPPRRIA [NFκB 303–332]
Competition of NFκB 303–332 with Pro peptide ASPP2 722–737 for ASPP2 Ank-SH3 [1]: competed | Binding of NFκB 303–332 to the n-src loop peptide [3]: did not bind | Displacement of p53CD from its complex with Fl-ASPP2 n-src peptide 1089–1097 by non-labeled peptide [4]: did not compete

NFκB 21–50: unlabeled peptide derived from the ASPP2-binding sites in NFκB (VEIIEQPKQRGMRFRYKCEGRSAGSIPGER)
Displacement of p53CD from its complex with Fl-ASPP2 n-src peptide 1089–1097 by non-labeled peptide [4]: did not compete

REDEDEIEW [ASPP2 1089–1097, nine-residue peptide derived from ASPP2 n-src loop (residues 1089–1097), also termed CDB3]
Sensitization to apoptosis induced by γ-irradiation (HCT116 p53−/− cells): not | Sensitization to apoptosis induced by γ-irradiation [5]: sensitize | Conformation of R175H and R273H mutant p53 in cells [6]: restored the wild-type conformation | Unfolding of p53CD (p53CD): slowed down the unfolding | Structural effects of mutation in p53 R249S (p53 R249S mutant): rescued the structural effects of mutation | Specific DNA binding activity of p53CD mutant I195T (p53CD mutant I195T): restored the specific DNA binding activity

RRYRRDFAEMSSQLHLTP [Bcl-2 103–120]
Displacement of Fl-NFκB 303–332 from its complex with ASPP2 Ank-SH3 [7]: did not displace; also recorded: did not compete | Displacement of Fl-ASPP2 722–737 from its complex with ASPP2 Ank-SH3 [8]: did not displace; also recorded: did not compete | Displacement of p53CD from its complex with Fl-ASPP2 n-src peptide 1089–1097 by non-labeled peptide [4]: did not compete

YDNREIVMKYIHYKLSQR [Bcl-2 7–24, Bcl2 BH4 derived peptide, residues 7–24]
Displacement of Fl-NFκB 303–332 from its complex with ASPP2 Ank-SH3 [7]: did not displace; also recorded: did not compete | Displacement of Fl-ASPP2 722–737 from its complex with ASPP2 Ank-SH3 [8]: did not displace; also recorded: did not compete | Displacement of p53CD from its complex with Fl-ASPP2 n-src peptide 1089–1097 by non-labeled peptide [4]: did not compete

p53CD: recombinant p53 DNA-binding core domain, residues 94–312, expressed in E. coli
Displacement of Fl-NFκB 303–332 from its complex with ASPP2 Ank-SH3 [7]: displaced | Displacement of Fl-ASPP2 722–737 from its complex with ASPP2 Ank-SH3 [8]: displaced | Anisotropy change on adding p53CD to pre-formed complex of ASPP2 Pro peptide and Fl-ASPP2 n-src peptide [9]: the final anisotropy level increased

B1: Fl-ASPP2 722–737 (fluorescein-labelled ASPP2 Pro peptide) (peptide)
peptide: fluorescein-WRKKLSNAPRPLKKRSS
notes: Trp added at the N terminus of the peptide for UV spectroscopy; also called Fl-ASPP2 Pro peptide; source: synthetic peptide
Kd [10]: 680 nM and 820 nM

B2: ASPP2 722–737 (ASPP2 Pro peptide, non-labelled) (peptide)
peptide: WRKKLSNAPRPLKKRSS
notes: Trp added at the N terminus of the peptide for UV spectroscopy; A natural stretch with one added N-terminal Trp; source: synthetic peptide
Kd [11]: 500 ± 30 nM

B3: Fl-NFκB 303–332 (fluorescein-labelled NFκB p65 peptide) (peptide)
peptide: fluorescein-KRTYETFKSIMKKSPFSGPTDPRPPPRRIA
notes: also called NFκB peptide; source: synthetic peptide
Kd [12]: 470 ± 20 nM | Kd [10]: 130 ± 10 nM
